Laboratory results: ChEMBL document CHEMBL3232998, “Spiromastixones A-O, antibacterial chlorodepsidones from a deep-sea-derived Spiromastix sp. fungus” (J Nat Prod, 2014)
pIC50: −log10 of the molar value. Values after ≈ are worked out from the molar mass of the structure shown.

test system: Staphylococcus aureus; assay: Antibacterial activity against Staphylococcus aureus ATCC 29213 after 18 hrs by broth microdilution method; format: functional; conditions: ATCC 29213, 18 h

Row | Structure (SMILES) | MIC [µg/mL]
1 | CCCc1cc(O)cc2c1Oc1cc(O)cc(CCC)c1C(=O)O2 | 4 (≈ 12.2 µM)
2 | CCCc1cc(O)cc2c1Oc1cc(O)c(Cl)c(CCC)c1C(=O)O2 | 8 (≈ 22.1 µM)
3 | CCCc1cc(O)cc2c1Oc1c(Cl)c(O)cc(CCC)c1C(=O)O2 | 8 (≈ 22.1 µM)
4 | CCCc1cc(O)c(Cl)c2c1C(=O)Oc1cc(O)c(Cl)c(CCC)c1O2 | 2 (≈ 5.03 µM)

test system: Bacillus thuringiensis; assay: Antibacterial activity against Bacillus thuringiensis SCSIO BT01 after 18 hrs by broth microdilution method; format: functional; conditions: SCSIO BT01, 18 h

Row | Structure (SMILES) | MIC [µg/mL]
5 | CCCc1cc(O)cc2c1Oc1cc(O)cc(CCC)c1C(=O)O2 | 4 (≈ 12.2 µM)
6 | CCCc1cc(O)cc2c1Oc1cc(O)c(Cl)c(CCC)c1C(=O)O2 | 4 (≈ 11 µM)
7 | CCCc1cc(O)cc2c1Oc1c(Cl)c(O)cc(CCC)c1C(=O)O2 | 8 (≈ 22.1 µM)
8 | CCCc1cc(O)c(Cl)c2c1C(=O)Oc1cc(O)c(Cl)c(CCC)c1O2 | 2 (≈ 5.03 µM)

test system: Bacillus subtilis; assay: Antibacterial activity against Bacillus subtilis SCSIO BS01 after 18 hrs by broth microdilution method; format: functional; conditions: SCSIO BS01, 18 h

Row | Structure (SMILES) | MIC [µg/mL]
9 | CCCc1cc(O)cc2c1Oc1cc(O)cc(CCC)c1C(=O)O2 | 8 (≈ 24.4 µM)
10 | CCCc1cc(O)cc2c1Oc1cc(O)c(Cl)c(CCC)c1C(=O)O2 | 8 (≈ 22.1 µM)
11 | CCCc1cc(O)cc2c1Oc1c(Cl)c(O)cc(CCC)c1C(=O)O2 | 16 (≈ 44.1 µM)
12 | CCCc1cc(O)c(Cl)c2c1C(=O)Oc1cc(O)c(Cl)c(CCC)c1O2 | 2 (≈ 5.03 µM)

test system: Escherichia coli; assay: Antibacterial activity against Escherichia coli ATCC 25922 after 18 hrs by broth microdilution method; format: functional; conditions: ATCC 25922, 18 h

Row | Structure (SMILES) | MIC [µg/mL]
13 | CCCc1cc(O)cc2c1Oc1cc(O)cc(CCC)c1C(=O)O2 | > 128
14 | CCCc1cc(O)cc2c1Oc1cc(O)c(Cl)c(CCC)c1C(=O)O2 | > 128
15 | CCCc1cc(O)cc2c1Oc1c(Cl)c(O)cc(CCC)c1C(=O)O2 | > 128
16 | CCCc1cc(O)c(Cl)c2c1C(=O)Oc1cc(O)c(Cl)c(CCC)c1O2 | > 128

test system: Staphylococcus aureus; assay: Antibacterial activity against methicillin-sensitive Staphylococcus aureus ATCC 29213 after 18 hrs by broth microdilution method; format: functional, organism-based; conditions: ATCC 29213, 18 h, read-out: IC50

Row | Structure (SMILES) | MIC [µM]
17 | CCCc1cc(O)cc2c1Oc1c(Cl)c(O)cc(CCC)c1C(=O)O2 | 32 (≈ 11.6 µg/mL)

test system: Staphylococcus aureus; assay: Antibacterial activity against methicillin-resistant Staphylococcus aureus ATCC 33591 after 18 hrs by broth microdilution method; format: functional, organism-based; conditions: ATCC 33591, 18 h, read-out: IC50

Row | Structure (SMILES) | MIC [µM]
18 | CCCc1cc(O)cc2c1Oc1c(Cl)c(O)cc(CCC)c1C(=O)O2 | 64 (≈ 23.2 µg/mL)

test system: Staphylococcus aureus; assay: Antibacterial activity against methicillin-sensitive Staphylococcus aureus 15 after 18 hrs by broth microdilution method; format: functional, organism-based; conditions: Staphylococcus aureus, 15, 18 h; read-out: IC50

Row | Structure (SMILES) | MIC [µM]
19 | CCCc1cc(O)cc2c1Oc1c(Cl)c(O)cc(CCC)c1C(=O)O2 | 64 (≈ 23.2 µg/mL)

test system: Staphylococcus aureus; assay: Antibacterial activity against methicillin-sensitive Staphylococcus aureus 12-28 after 18 hrs by broth microdilution method; format: functional, organism-based; conditions: 12-28, 18 h

Row | Structure (SMILES) | pIC50
20 | CCCc1cc(O)cc2c1Oc1c(Cl)c(O)cc(CCC)c1C(=O)O2 | 4.19

test system: Staphylococcus aureus; assay: Antibacterial activity against methicillin-resistant Staphylococcus aureus 12-33 after 18 hrs by broth microdilution method; format: functional, organism-based; conditions: 12-33, 18 h, read-out: IC50

Row | Structure (SMILES) | MIC [µM]
21 | CCCc1cc(O)cc2c1Oc1c(Cl)c(O)cc(CCC)c1C(=O)O2 | 64 (≈ 23.2 µg/mL)

test system: Staphylococcus epidermidis; assay: Antibacterial activity against methicillin-sensitive Staphylococcus epidermidis ATCC 12228 after 18 hrs by broth microdilution method; format: functional, organism-based; conditions: ATCC 12228, 18 h, read-out: IC50

Row | Structure (SMILES) | MIC [µM]
22 | CCCc1cc(O)cc2c1Oc1c(Cl)c(O)cc(CCC)c1C(=O)O2 | 64 (≈ 23.2 µg/mL)

test system: Staphylococcus epidermidis; assay: Antibacterial activity against methicillin-sensitive Staphylococcus epidermidis 12-6 after 18 hrs by broth microdilution method; format: functional, organism-based; conditions: 12-6, 18 h

Row | Structure (SMILES) | pIC50
23 | CCCc1cc(O)cc2c1Oc1c(Cl)c(O)cc(CCC)c1C(=O)O2 | 4.19

test system: Staphylococcus epidermidis; assay: Antibacterial activity against methicillin-resistant Staphylococcus epidermidis 12-8 after 18 hrs by broth microdilution method; format: functional, organism-based; conditions: 12-8, 18 h, read-out: IC50

Row | Structure (SMILES) | MIC [µM]
24 | CCCc1cc(O)cc2c1Oc1c(Cl)c(O)cc(CCC)c1C(=O)O2 | 32 (≈ 11.6 µg/mL)

test system: Enterococcus faecalis; assay: Antibacterial activity against vancomycin-sensitive Enterococcus faecalis ATCC 29212 after 18 hrs by broth microdilution method; format: functional, organism-based; conditions: ATCC 29212, 18 h, read-out: IC50

Row | Structure (SMILES) | MIC [µM]
25 | CCCc1cc(O)cc2c1Oc1c(Cl)c(O)cc(CCC)c1C(=O)O2 | 256 (≈ 92.9 µg/mL)

test system: Enterococcus faecalis; assay: Antibacterial activity against vancomycin-resistant Enterococcus faecalis ATCC 51299 after 18 hrs by broth microdilution method; format: functional, organism-based; conditions: ATCC 51299, 18 h, read-out: IC50

Row | Structure (SMILES) | MIC [µM]
26 | CCCc1cc(O)cc2c1Oc1c(Cl)c(O)cc(CCC)c1C(=O)O2 | > 256

test system: Enterococcus faecalis; assay: Antibacterial activity against vancomycin-sensitive Enterococcus faecalis 12-5 after 18 hrs by broth microdilution method; format: functional, organism-based; conditions: 12-5, 18 h, read-out: IC50

Row | Structure (SMILES) | MIC [µM]
27 | CCCc1cc(O)cc2c1Oc1c(Cl)c(O)cc(CCC)c1C(=O)O2 | > 256

test system: Enterococcus faecalis; assay: Antibacterial activity against vancomycin-resistant Enterococcus faecalis 09-9 after 18 hrs by broth microdilution method; format: functional, organism-based; conditions: 09-9, 18 h, read-out: IC50

Row | Structure (SMILES) | MIC [µM]
28 | CCCc1cc(O)cc2c1Oc1c(Cl)c(O)cc(CCC)c1C(=O)O2 | 256 (≈ 92.9 µg/mL)

test system: Enterococcus faecium; assay: Antibacterial activity against vancomycin-resistant Enterococcus faecium ATCC 700221 after 18 hrs by broth microdilution method; format: functional, organism-based; conditions: ATCC 700221, 18 h, read-out: IC50

Row | Structure (SMILES) | MIC [µM]
29 | CCCc1cc(O)cc2c1Oc1c(Cl)c(O)cc(CCC)c1C(=O)O2 | > 256

test system: Enterococcus faecium; assay: Antibacterial activity against vancomycin-resistant Enterococcus faecium 12-1 after 18 hrs by broth microdilution method; format: functional, organism-based; conditions: 12-1, 18 h, read-out: IC50

Row | Structure (SMILES) | MIC [µM]
30 | CCCc1cc(O)cc2c1Oc1c(Cl)c(O)cc(CCC)c1C(=O)O2 | 256 (≈ 92.9 µg/mL)

test system: Enterococcus faecium; assay: Antibacterial activity against vancomycin-sensitive Enterococcus faecium 12-3 after 18 hrs by broth microdilution method; format: functional, organism-based; conditions: 12-3, 18 h, read-out: IC50

Row | Structure (SMILES) | MIC [µM]
31 | CCCc1cc(O)cc2c1Oc1c(Cl)c(O)cc(CCC)c1C(=O)O2 | > 256

test system: Escherichia coli; assay: Antibacterial activity against extended spectrum beta-lactamase-deficient Escherichia coli ATCC 25922 after 18 hrs by broth microdilution method; format: functional, organism-based; conditions: ATCC 25922, 18 h, read-out: IC50

Row | Structure (SMILES) | MIC [µM]
32 | CCCc1cc(O)cc2c1Oc1c(Cl)c(O)cc(CCC)c1C(=O)O2 | > 256

test system: Escherichia coli; assay: Antibacterial activity against extended spectrum beta-lactamase-deficient Escherichia coli 1515 after 18 hrs by broth microdilution method; format: functional, organism-based; conditions: Escherichia coli, 1515, 18 h

Row | Structure (SMILES) | pIC50
33 | CCCc1cc(O)cc2c1Oc1c(Cl)c(O)cc(CCC)c1C(=O)O2 | < 3.59

test system: Escherichia coli; assay: Antibacterial activity against extended spectrum beta-lactamase-deficient Escherichia coli 12-14 after 18 hrs by broth microdilution method; format: functional, organism-based; conditions: 12-14, 18 h, read-out: IC50

Row | Structure (SMILES) | MIC [µM]
34 | CCCc1cc(O)cc2c1Oc1c(Cl)c(O)cc(CCC)c1C(=O)O2 | > 256

test system: Escherichia coli; assay: Antibacterial activity against extended spectrum beta-lactamase producing Escherichia coli 12-15 after 18 hrs by broth microdilution method; format: functional, organism-based; conditions: 12-15, 18 h, read-out: IC50

Row | Structure (SMILES) | MIC [µM]
35 | CCCc1cc(O)cc2c1Oc1c(Cl)c(O)cc(CCC)c1C(=O)O2 | > 256

test system: Klebsiella pneumoniae; assay: Antibacterial activity against extended spectrum beta-lactamase producing Klebsiella pneumoniae ATCC 700603 after 18 hrs by broth microdilution method; format: functional, organism-based; conditions: ATCC 700603, 18 h

Row | Structure (SMILES) | pIC50
36 | CCCc1cc(O)cc2c1Oc1c(Cl)c(O)cc(CCC)c1C(=O)O2 | < 3.59

test system: Klebsiella pneumoniae; assay: Antibacterial activity against extended spectrum beta-lactamase-deficient Klebsiella pneumoniae 7 after 18 hrs by broth microdilution method; format: functional, organism-based; conditions: Klebsiella pneumoniae, 7, 18 h; read-out: IC50

Row | Structure (SMILES) | MIC [µM]
37 | CCCc1cc(O)cc2c1Oc1c(Cl)c(O)cc(CCC)c1C(=O)O2 | > 256

test system: Klebsiella pneumoniae; assay: Antibacterial activity against NDM-1 producing Klebsiella pneumoniae ATCC BAA-2146 after 18 hrs by broth microdilution method; format: functional, organism-based; conditions: ATCC BAA-2146, 18 h, read-out: IC50

Row | Structure (SMILES) | MIC [µM]
38 | CCCc1cc(O)cc2c1Oc1c(Cl)c(O)cc(CCC)c1C(=O)O2 | > 256

test system: Klebsiella pneumoniae; assay: Antibacterial activity against extended spectrum beta-lactamase-deficient Klebsiella pneumoniae 12-4 after 18 hrs by broth microdilution method; format: functional, organism-based; conditions: 12-4, 18 h

Row | Structure (SMILES) | pIC50
39 | CCCc1cc(O)cc2c1Oc1c(Cl)c(O)cc(CCC)c1C(=O)O2 | < 3.59

test system: Klebsiella pneumoniae; assay: Antibacterial activity against extended spectrum beta-lactamase producing Klebsiella pneumoniae 12-8 after 18 hrs by broth microdilution method; format: functional, organism-based; conditions: 12-8, 18 h, read-out: IC50

Row | Structure (SMILES) | MIC [µM]
40 | CCCc1cc(O)cc2c1Oc1c(Cl)c(O)cc(CCC)c1C(=O)O2 | > 256
